In patent US11891371B2, “Piperonylic acid derivative and preparation and application thereof” (SHENYANG SINOCHEM AGROCHEMICALS R&D CO., LTD., priority 2017, dated 2024):
Like-named read-outs stand apart in the source and are kept apart here.

Tests used:
diamondback moth = assay: Determination of activity against diamondback moth (cabbage leaf disc dip, second instar, 72 h mortality); format: in vivo; details: Plutella xylostella, foliar, 1 mg/L, read-out: mortality rates against diamondback moth
Description: (§1) According to the solubility of test compounds, the compounds are dissolved in acetone or dimethyl sulfoxide, and then diluted with 0.1% aqueous solution of Tween 80 to form a required concentration of 50 ml test liquid, The content of the acetone or the dimethyl sulfoxide in the total solution is not more than 10%.
The leaves of cabbage grown in greenhouse were selected, removed the surface waxy layers, punched into circular leaf discs with a diameter of 2 cm by using a puncher, and dipped into a solution of the required concentration of test compounds for 10 seconds. After dried in shade, the circular leaf discs were placed in a 9 cm diameter petri dish provided with filter paper. Ten regular healthy test insects (second instar) were put into the leaf discs. Four replicates were set for each treatment. The pure water treatment was set as control check. The treated discs were placed in a chamber of 24° C., 60%-70% relative humidity and day light. After 72 hours, the number of surviving insects was investigated, and the mortality rate was calculated.

armyworm = assay: Determination of activity against armyworm (corn leaf dip, third instar, 72 h mortality); format: in vivo; details: foliar; for mortality at 0.1 µg/mL: read-out: Mortality rate (%) 0.1 mg/L
Description: as §1
The middle leaves of fresh corns were cut into small sections of 3 cm, and dipped into a solution of the required concentration of test compounds for 10 seconds. After dried in shade, the middle leaves were placed in a 9 cm diameter petri dish provided with filter paper. Fourteen regular healthy test insects (third instar) were put into the leaves. Four replicates were set for each treatment. The pure water treatment was set as control check. The treated discs were placed in a chamber of is 24° C., 60%-70% relative humidity and day light. After 72 hours, the number of surviving insects was investigated, and the mortality rate was calculated.

adult spider mite = assay: Determination of acaricidal activity against adult spider mite (bean leaf spray, 72 h mortality); format: in vivo; details: after 72 hours
Description: as §1, with “liquid.” for “liquid,”
The adult spider mites were put into two true leaves of bean plants. After the number of mites was investigated, the solution of certain concentrations of test compounds was sprayed by using a handheld Airbrush. Three replicates were set for each treatment. Then the leaves were maintained in a standard observation room. After 72 hours, the number of surviving mites was observed, and the mortality rate was calculated.

green peach aphid = assay: Determination of activity against green peach aphid (cabbage leaf spray, 48 h mortality); format: in vivo; details: Myzus persicae, 10 mg/L, read-out: mortality rates against green peach aphid
Description: as §1
A layer of filter paper was covered on the bottom of the 6 cm diameter petri dish. To the petri dish, a proper amount of tap water was added dropwise for moisture retention. Cabbage leaves, on which 15-30 aphids exist, with a suitable size (about 3 cm in diameter) were cut from the cabbage plants breeding peach aphids. After winged aphids and the aphids on the front surface of the leaves were removed, the leaves were placed in the petri dish in a manner of backing on to the petri dish, and sprayed with a handheld Airbrush, with a pressure of 10 psi (about 0.7 kg/cm^2) and a spray volume of 0.5 ml, Three replicates were set for each treatment. After treatment, the cabbage leaves were placed in a standard observation room. After 48 hours, the number of surviving aphids was investigated, and the mortality rate was calculated.

beet armyworm = assay: Determination of activity against beet armyworm (cabbage leaf disc spray, third instar, 96 h mortality); format: in vivo; details: after 96 hours
Description: as §1
The cabbage leaves were punched into circular leaf discs with a diameter of 1 cm by using a puncher. A certain concentration of test compound was sprayed on both sides of each leaf disc at a spray volume of 0.5 ml by a handheld Airbrush. After the leaf discs were dried in shade, 12 test insects (third instar) were put into the leaf discs. Three replicates were set for each treatment. The pure water treatment was set as control check. The treated discs were placed in a chamber of 24° C., 60%-70% relative humidity and day light. After 96 hours, the number of surviving insects was investigated, and the mortality rate was calculated. See Table 2 for parallel determination results of activity of compounds 1-8 and KC2 (compound 3-1 in U.S. Pat. No. 8,853,440B2) against beet armyworm.

rice leaf folder = assay: Determination of activity against rice leaf folder in field trial (foliar spray, 15 days mortality); format: in vivo; details: after 15 days
Description: A certain concentration of test compounds was sprayed on the leaf surfaces in the peak of the hatching period of the rice leaf folders, with a spray volume of 450 L per hectare. The area of a rice plot was 32 square meters. Three replicates were set for each treatment. After 15 days, the number of surviving rice leaf folders was investigated, and the mortality rate was calculated. See Table 3 for parallel determination results of activity of compounds I-8 and KC2 against rice leaf folder.

Plutella xylostella = details: 100 ppm; disclosed in WO2005073165A1, US2007275980A1, US20140206727A1; cited from earlier work
Spodoptera litura = details: 100 ppm; disclosed in WO2005073165A1, US2007275980A1, US20140206727A1; cited from earlier work
housefly larva = assay: Determination of activity against housefly larva (feed poisoning method, third instar, 72 h mortality); format: in vivo; details: after 72 hours
Description: Third instar housefly larvae were tested by a feed poisoning method. 1000 mg/L, of acetone solution of the test compounds was diluted into a required concentration of test liquid by using a certain concentration of milk powder emulsion according to a test design dose. The test liquid was uniformly added to a 6 cm diameter petri dish provided with filter paper by using a pipette, with 1 ml per dish. The third instar housefly larvae were put into the petri dish. Three replicates were set for each treatment. Then the petri dishes were maintained in a standard observation room. After 72 hours, the number of surviving housefly larvae was investigated, and the mortality rate was calculated. See Table 5 for parallel determination results of activity of compounds I-51 and KC2 against housefly larva.

[1] = 0.3 mg/L, 72 hours, read-out: mortality rates against armyworm
[2] = 0.1 mg/L, armyworm, 72 hours, parallel determination
[3] = 0.3 mg/L, armyworm, 72 hours, parallel determination, read-out: Mortality rate (%) 0.3 mg/L

SMILES: CN(C(=O)c1ccc2c(c1)OC(F)(F)O2)c1cccc(C(=O)Nc2c(Br)cc(C(F)(C(F)(F)F)C(F)(F)F)cc2I)c1F [Compound I-48, N-(2-bromo-6-iodo-4-perfluoroisopropylphenyl)-2-fluoro-3-(N-methyl-2,2-difluoro-1,3-benzodioxole-5-carboxamido)benzamide]
- mortality at 1 µg/mL (diamondback moth): > 90%
- mortality at 0.3 µg/mL (armyworm; [1]): > 90%

SMILES: O=C(Nc1cccc(C(=O)Nc2c(Br)cc(C(F)(C(F)(F)F)C(F)(F)F)cc2Br)c1F)c1ccccc1 [KC3]
- Mortality rate (%) (adult spider mite; 10 mg/L): 0%
- Mortality rate (%) (adult spider mite; 100 mg/L): 0%
- Mortality rate (%) (adult spider mite; 600 mg/L): 0%
- mortality at 0.1 µg/mL (armyworm; [2]): 28.6%
- mortality at 0.3 µg/mL (armyworm; [3]): 64.3%

SMILES: CN(C(=O)c1ccc2c(c1)OC(F)(F)O2)c1cccc(C(=O)Nc2c(I)cc(C(F)(C(F)(F)F)C(F)(F)F)cc2I)c1F [Compound I-44]
- mortality at 1 µg/mL (diamondback moth): > 90%
- mortality at 0.3 µg/mL (armyworm; [1]): > 90%

SMILES: O=C(Nc1cccc(C(=O)Nc2c(Br)cc(C(F)(C(F)(F)F)C(F)(F)F)cc2Br)c1F)c1ccc2c(c1)OC(F)(F)O2 [Compound I-8]
- mortality at 1 µg/mL (diamondback moth): > 90%
- Mortality rate (%) (adult spider mite; 10 mg/L): 93.3%
- Mortality rate (%) (adult spider mite; 100 mg/L): 100%
- Mortality rate (%) (adult spider mite; 600 mg/L): 100%
- mortality at 10 µg/mL (green peach aphid): > 80%
- mortality at 0.1 µg/mL (armyworm; [2]): 100%
- mortality at 0.3 µg/mL (armyworm; [1]): > 90%
- mortality at 0.3 µg/mL (armyworm; [3]): 100%
- Mortality rate (%) (beet armyworm; 0.2 mg/L): 83.3%
- Mortality rate (%) (beet armyworm; 1 mg/L): 91.7%
- Mortality rate (%) (rice leaf folder; 30 g/ha): 83%
- Mortality rate (%) (rice leaf folder; 45 g/ha): 85%

SMILES: CN(C(=O)c1ccc2c(c1)OC(F)(F)O2)c1cccc(C(=O)Nc2c(Br)cc(C(F)(C(F)(F)F)C(F)(F)F)cc2C(F)(F)F)c1F [Compound I-45, N-(2-bromo-4-heptafluoroisopropyl-6-trifluoromethylphenyl)-2-fluoro-3-(N-methyl-2,2-difluoro-1,3-benzodioxole-5-carboxamido) Benzamide]
- mortality at 1 µg/mL (diamondback moth): > 90%
- mortality at 0.3 µg/mL (armyworm; [1]): > 90%

SMILES: O=C(Nc1cccc(C(=O)Nc2c(Br)cc(C(F)(C(F)(F)F)C(F)(F)F)cc2I)c1F)c1ccc2c(c1)OC(F)(F)O2 [Compound I-5, N-(2-bromo-6-iodo-4-perfluoroisopropylphenyl)-3-(2,2-difluoro-1,3-benzodioxole-5-carboxamido)-2-fluorobenzamide]
- mortality at 1 µg/mL (diamondback moth): > 90%
- mortality at 0.3 µg/mL (armyworm; [1]): > 90%

SMILES: Cc1cc(C(F)(C(F)(F)F)C(F)(F)F)cc(C)c1NC(=O)c1cccc(NC(=O)c2ccc3c(c2)OC(F)(F)O3)c1 [KC1]
- Mortality rate (%) (adult spider mite; 10 mg/L): 0%
- Mortality rate (%) (adult spider mite; 100 mg/L): 0%
- Mortality rate (%) (adult spider mite; 600 mg/L): 0%
- mortality at 0.1 µg/mL (armyworm; 72 h): 0%
- mortality at 0.3 µg/mL (armyworm; 72 h, read-out: Mortality rate (%) 0.3 mg/L): 0%
- mortality rates against Plutella xylostella (Plutella xylostella): ≥ 70%
- mortality rates against Spodoptera litura (Spodoptera litura): ≥ 70%

SMILES: CN(C(=O)c1ccccc1)c1cccc(C(=O)Nc2c(Br)cc(C(F)(C(F)(F)F)C(F)(F)F)cc2C(F)(F)F)c1F [KC2, Broflanilide, reference compound]
- Mortality rate (%) (adult spider mite; 10 mg/L): 0%
- Mortality rate (%) (adult spider mite; 100 mg/L): 0%
- Mortality rate (%) (adult spider mite; 600 mg/L): 0%
- Mortality rate (%) (beet armyworm; 0.2 mg/L): 66.7%
- Mortality rate (%) (beet armyworm; 1 mg/L): 83.3%
- Mortality rate (%) (housefly larva; 1 mg/L): 50%
- Mortality rate (%) (housefly larva; 3 mg/L): 69.6%
- Mortality rate (%) (housefly larva; 10 mg/L): 100%
- Mortality rate (%) (rice leaf folder; 30 g/ha): 79%
- Mortality rate (%) (rice leaf folder; 45 g/ha): 82%

SMILES: O=C(Nc1cccc(C(=O)Nc2c(Br)cc(C(F)(C(F)(F)F)C(F)(F)F)cc2C(F)(F)F)c1F)c1ccc2c(c1)OC(F)(F)O2 [Compound I-2]
- mortality at 1 µg/mL (diamondback moth): > 90%
- mortality at 0.3 µg/mL (armyworm; [1]): > 90%

SMILES: O=C(Nc1cccc(C(=O)Nc2ccc(C(F)(C(F)(F)F)C(F)(F)F)cc2)c1F)c1ccc2c(c1)OC(F)(F)O2 [Compound C1]
- Mortality rate (%) (adult spider mite; 10 mg/L): 0%
- Mortality rate (%) (adult spider mite; 100 mg/L): 0%
- Mortality rate (%) (adult spider mite; 600 mg/L): 0%

SMILES: CN(C(=O)c1ccc2c(c1)OC(F)(F)O2)c1cccc(C(=O)Nc2c(Br)cc(C(F)(C(F)(F)F)C(F)(F)F)cc2Br)c1F [Compound I-51, N-(2,6-dibromide-4-heptafluoroisopropylphenyl)-2-fluoro-3-(N-methyl-2,2-difluoro-1,3-benzodioxole-5-carboxamido)benzamide]
- mortality at 1 µg/mL (diamondback moth): > 90%
- mortality at 10 µg/mL (green peach aphid): > 80%
- mortality at 0.1 µg/mL (armyworm; [2]): 85.7%
- mortality at 0.3 µg/mL (armyworm; [1]): > 90%
- mortality at 0.3 µg/mL (armyworm; [3]): 100%
- Mortality rate (%) (housefly larva; 1 mg/L): 75%
- Mortality rate (%) (housefly larva; 3 mg/L): 90.5%
- Mortality rate (%) (housefly larva; 10 mg/L): 100%

SMILES: O=C(Nc1cccc(C(=O)Nc2c(Br)cccc2Br)c1F)c1ccc2c(c1)OC(F)(F)O2 [Compound C2]
- Mortality rate (%) (adult spider mite; 10 mg/L): 0%
- Mortality rate (%) (adult spider mite; 100 mg/L): 0%
- Mortality rate (%) (adult spider mite; 600 mg/L): 0%
